Results from patent US20060002932A1, “Methods and compositions for enhancement of immunity by in vivo depletion of immunosuppressive cell activity” (priority 2004, published 2006).
“Also recorded” adds a separate entry of the source.

What was measured:
[1] = tested on: CD4^+ T-cell populations with increasing densities of CD25; assay: 7-AAD staining of CD4+ T-cell populations; assay type: cell-based, human
[2] = tested on: CD4^+/CD25^+ T cells of study subjects; assay: Treg functional evaluation (suppression of anti-CD3/CD28 activated indicator T cells); assay type: in vivo, human; settings: CD4^+/CD25^+ T cells isolated prior to vs 4 days after treatment
Method: The suppressive activity of Treg isolated from PBMC of study subjects prior to and 4 days after […] administration was analyzed, as described previously^25. CD4^+/CD25^+ T cells were isolated from the PBMC of study subjects using magnetic bead separation techniques. Cells were washed with PBS, resuspended in complete RPMI 1640 medium, and placed into 96-well round bottom plates pre-coated with anti-CD3/CD28 antibodies (0.4 μg/well) (Caltag). CD4^+/CD25^− cells were plated at 2.0×10^4/well alone or in combination with CD4^+/CD25^+ cells in triplicate wells at a ratio of 1:2 (CD4^+/CD25^−:CD4^+CD25^+). On day 5, 1 μCi of ^3H thymidine was added for the final 16 hr of the cultures. Cells were then harvested on glass fiber filters and assessed for uptake of radiolabeled thymidine.

[3] = tested on: CD3+, CD4+, CD8^+ T cells, B cells, monocytes/macrophages, NK cells; assay: Relative numbers of leukocyte subsets before and after DAB389IL-2; assay type: in vivo, human
Method: Using these methods, the degree of regulatory T cell depletion efficacy in the four subjects treated on the clinical protocol was determined.

PBMC = assay: MTT viability of PBMC (bystander toxicity); settings: DAB389IL-2 5 nM
[4] = tested on: CD4^+CD25^high regulatory T cells; assay: MTT cytotoxicity assay on isolated regulatory T cells; assay type: cell-based, human
Method: […] The formazan crystals were solubilized by adding 100 μL isopropanol/0.1 M hydrochloric acid and incubating at 37° C. for 2 hours. The absorbance of the formazan product was measured on an enzyme-linked immunosorbent assay (ELISA) plate reader at 570 nm.
Interferon-γ and IL-4 ELISPOT analyses were performed using PBMC obtained prior to, during, and after vaccination. PBMC were cultured overnight in complete RPMI 1640 medium. CD4^+ and CD8^+ T cells were isolated from PBMC by negative depletion (Miltenyi). After blocking, 1×10^5 T cells and 1×10^4 RNA-transfected DC were added to each well of 96-well nitrocellulose plates (Multiscreen-IP, Millipore) precoated with 2 μg/ml Interferon-γ capture antibody (Endogen) or with IL-4 capture antibody (BD Biosciences Pharmingen). Plates were incubated for 20 hours at 37° C., and biotinylated Interferon-γ detection antibody (Endogen) or biotinylated IL-4 antibody (BD Biosciences Pharmingen) was added to each well. Cells were then incubated for an additional two hours at room temperature, then with streptavidin-alkaline phosphatase (1 μg/ml; Sigma) and plates were developed with substrate (Kirkegaard & Perry Laboratories). After washing, spots were counted using an automated ELISPOT reader (Carl Zeiss). CTL assays were performed by coculturing RNA-transfected DC with autologous PBMC. Cells were restimulated once and IL-2 (20 units/ml) was added after five days and every other day thereafter. After 12 days of culture, effector cells were harvested. Target cells were labeled with 100 μCi of Na2[^51CrO4] (NEN) in 200 μl of complete RPMI 1640 for one hour at 37° C. in 5% CO2 and ^51Cr-labeled target cells were incubated in complete RPMI 1640 medium with effector cells for five hours at 37° C. Then, 50 μl of supernatant was harvested, and release of ^51Cr was measured with a scintillation counter. For proliferation assays, purified CD3^+ T cells were seeded into round-bottomed microplates in the presence of mRNA-transfected DC. […] Incorporation of thymidine was determined using a liquid scintillation counter.

[5] = tested on: antigen-specific CTL from PBMC; assay: 51Cr cytotoxicity assay of CTL stimulated from DAB389IL-2-depleted PBMC; assay type: cell-based, human
[6] = tested on: renal tumor-specific CD4^+ T cells; assay: Cytokine profile of vaccine-induced CD4+ T cells (ELISPOT, Th1/Th2 bead array); assay type: in vivo, human
[7] = 6-hour exposure, viability over 48 hours

denileukin diftitox [DAB389IL-2]
7-AAD staining of other CD4^+ T cells with lower or no CD25 expression [1]: only background levels of 7-AAD staining
concentration giving optimal killing of CD4^+/CD25^high Treg ([1]; 7-AAD staining): 5 nM
Treg-mediated immunosuppressive activity [2]: abrogation of Treg-mediated immunosuppressive activity in vivo
change in CD8^+/CD25^+ or CD19^+/CD25^+ cells ([3]; one subject analyzed): no decrease
change in relative number of CD3+, CD4+, CD8+ T cells, B cells, monocytes/macrophages and NK cells ([3]; prior to and after treatment): no significant changes
PBMC viability over time (PBMC): no significant differences in PBMC viability
concentration giving complete depletion of CD4^+CD25^high cells [4, 7]: 5 nM
concentration giving efficient killing of CD4^+CD25^high cells [4, 7]: 0.5 nM
cell viability of CD4^+CD25^high regulatory T cells ([4]; 24 hours following exposure): significant reduction in cell viability
improvement of antigen-specific killing ([5]; MART-1 peptide-pulsed DC as stimulators, DAB389IL-2 5 nM): only modest, statistically insignificant improvement of antigen-specific killing
lytic activity of CTL stimulated from Treg-depleted vs non-depleted PBMC ([5]; mRNA-transfected DC stimulators (hTERT, MART-1)): higher lytic activity against their cognate targets; also recorded: significantly higher lytic activity
improvement of CTL responses ([5]; recall antigen fluM1, or peptide-loaded DC as stimulators): ineffective in improving CTL responses
Th1/Th2 cytokine secretion by vaccine-induced T cells (bead array) ([6]; 18 hours stimulation with RCC RNA-transfected DC): secretion of Th-1 type cytokines (IL-2, Interferon-γ, or TNF-α), but not Th-2 type cytokines
Interferon-γ / IL-4 secreting renal tumor-specific CD4 T cells (ELISPOT) ([6]; one subject, DAB389IL-2 followed by vaccination): stimulation of Interferon-γ, but not IL-4-secreting renal tumor-specific CD4 T cells
